Where two headings read alike, the source gives them in different places.
Experiments:
[1] = Oral toxicity testing in mice (ALD50, ATD50); conditions: mouse, in vivo
Procedure: ^(1) Various oral doses of from 5 mg/kg to 2000 mg/kg are given to 2
mice each; ALD50 is the approximate lethal dose for half the animals
ATD50 is the approximate lowest dose where signs of physiologic or […]

[2] = system: Ventricular arrhythmia produced in mice by chloroform inhalation; experiment: Chloroform induced arrhythmia test in the mouse; assay type: in vivo; conditions: inhaled or nasal, 10 animals per dose, read-out: Antiarrhythmic Activity Mouse ED50
From the text: ^(2) Ventricular arrhythmia produced in mice by chloroform inhalation
10 animals per dose (Lawson, J. W., J. Pharmacol. Exp. Therap., 160, 22

[3] = mice, oral, approximate lethal dose for half the animals, read-out: Toxicity ALD50
[4] = mice, oral, approximate lowest dose where signs of physiologic or neurologic deficit appear, read-out: Toxicity ATD50

Row | SMILES | LD50 [1, 3] [mg/kg] | TD50 [1, 4] [mg/kg] | ED50 [2] [mg/kg] | LD50 ([1]; po) [mg/kg] | TD50 ([1]; po) [mg/kg]
1 | COc1ccc(C(=O)Nc2ccccc2CCC2CCCC[N+]2(C)C)cc1.[I-] (stereo not drawn) [IIa, 2-[2-[2-[(4-Methoxybenzoyl)amino]phenyl]ethyl]-1,1-dimethylpiperidinium Iodide] | > 2000 | 250 | 30.5 |  | 
2 | COc1ccc(C(=O)Nc2ccccc2CCC2CCCCN2C)cc1 (stereo not drawn) [I, reference compound] | 50 to 100 | 5 to 10 | 7 to 15 |  | 
3 | COc1ccc(C(=O)Nc2ccccc2CCC2CCCC[N+]2(C)Cc2ccccc2)cc1 (stereo not drawn) [IIb, 2-[2--[2-[(4-Methoxybenzoyl)amino]phenyl]ethyl]-1-methyl-1-(phenylmethyl)piperidinium Bromide Hydrate] |  |  | 19 | > 1000 | 125 to 250

Source: patent US4321386A, “Quaternary piperidinium halides” (Mead Johnson & Company, priority 1981, dated 1982)
